Measured values reported in patent US8952024B2, “Herbicidal pyrimidone derivatives” (E I du Pont de Nemours and Company, priority 2009, dated 2015).

Assays:
Assay in all cases: Test B pre-/postemergence plant response
Type in all cases: in vivo
[1] = test system: downy bromegrass (Bromus tectorum)
Outline: (§1)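 Greenhouse herbicide screen. Pre- and postemergence (1- to 4-leaf) spray of compound in solvent/surfactant mixture; loam–sand soil for pre, peat/vermiculite medium for post. Visual control rating 0–100 at 13 to 15 days after treatment.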

[2] = test system: giant foxtail (Setaria faberii)
Outline: as §1

[3] = test system: goosegrass (Eleusine indica)
Outline: as §1

[4] = test system: green foxtail (Setaria viridis)
Outline: as §1

[5] = test system: johnsongrass (Sorghum halepense)
Outline: as §1

kochia (Kochia scoparia) = details: Postemergence; for Plant response rating, Kochia: scale 0 (no effect) to 100 (complete control); for Kochia plant response rating: 250 g ai/ha, scale 0 to 100
Outline: as §1

[6] = test system: lambsquarters (Chenopodium album)
Outline: as §1

[7] = test system: large crabgrass (Digitaria sanguinalis)
Outline: as §1

[8] = test system: pigweed (Amaranthus retroflexus)
Outline: as §1

[9] = test system: velvetleaf (Abutilon theophrasti)
Outline: as §1

[10] = test system: wheat (Triticum aestivum)
Outline: as §1

[11] = test system: woolly cupgrass (Eriochloa villosa)
Outline: as §1

[12] = test system: yellow nutsedge (Cyperus esculentus)
Outline: as §1

[13] = 250 g ai/ha, Preemergence, 0 to 100 scale
[14] = Postemergence, 31 g ai/ha, scale 0 to 100 (0 no effect, 100 complete control)
[15] = Postemergence, 62 g ai/ha, scale 0 (no effect) to 100 (complete control), 13 to 15 days
[16] = Postemergence, 125 g ai/ha, visual rating after 13 to 15 days, scale 0 (no effect) to 100 (complete control)
[17] = Postemergence, 250 g ai/ha, scale 0 to 100
[18] = Preemergence, 31 g ai/ha, scale 0 to 100 (0 no effect, 100 complete control)
[19] = Preemergence, 62 g ai/ha, scale 0 to 100 (0 no effect, 100 complete control)
[20] = Preemergence, 125 g ai/ha, 0 to 100 scale
[21] = 125 g ai/ha, visual rating after 13 to 15 days

## CCCCc1ncc(C(=O)C2=C(O)CCCC2=O)c(=O)n1-c1ccccc1 [Compound 42]
[1]; [13]
  Plant response rating, Bromegrass, Downy: 0
[1]; [14]
  Plant response rating, Bromegrass, Downy: 0
[1]; [15]
  Plant response rating, Bromegrass, Downy: 5
[1]; [16]
  Plant response rating, Bromegrass, Downy: 15
[1]; [17]
  Bromegrass, Downy plant response rating: 25
[1]; [18]
  Plant response rating, Bromegrass, Downy: 0
[1]; [19]
  Plant response rating, Bromegrass, Downy: 0
[1]; [20]
  Bromegrass, Downy plant response rating: 0
[2]; [13]
  Plant response rating, Foxtail, Giant: 10
[2]; [14]
  Plant response rating, Foxtail, Giant: 45
[2]; [15]
  Plant response rating, Foxtail, Giant: 65
[2]; [16]
  Plant response rating, Foxtail, Giant: 75
[2]; [17]
  Foxtail, Giant plant response rating: 85
[2]; [18]
  Plant response rating, Foxtail, Giant: 0
[2]; [19]
  Plant response rating, Foxtail, Giant: 0
[2]; [20]
  Foxtail, Giant plant response rating: 10
[3]; [13]
  Plant response rating, Goosegrass: 100
[3]; [15]
  Plant response rating, Goosegrass: 85
[3]; [16]
  Plant response rating, Goosegrass: 90
[3]; [17]
  Goosegrass plant response rating: 95
[3]; [18]
  Plant response rating, Goosegrass: 50
[3]; [20]
  Goosegrass plant response rating: 100
[4]; [13]
  Plant response rating, Foxtail, Green: 85
[4]; [14]
  Plant response rating, Foxtail, Green: 50
[4]; [15]
  Plant response rating, Foxtail, Green: 55
[4]; [16]
  Plant response rating, Foxtail, Green: 60
[4]; [17]
  Foxtail, Green plant response rating: 85
[4]; [18]
  Plant response rating, Foxtail, Green: 65
[4]; [19]
  Plant response rating, Foxtail, Green: 65
[4]; [20]
  Foxtail, Green plant response rating: 85
[5]; [13]
  Plant response rating, Johnsongrass: 65
[5]; [15]
  Plant response rating, Johnsongrass: 0
[5]; [16]
  Plant response rating, Johnsongrass: 40
[5]; [17]
  Johnsongrass plant response rating: 65
[5]; [18]
  Plant response rating, Johnsongrass: 0
[5]; [19]
  Plant response rating, Johnsongrass: 0
[5]; [20]
  Johnsongrass plant response rating: 10
Kochia (Kochia scoparia); 62 g ai/ha, 13 to 15 days
  Plant response rating, Kochia: 100
Kochia (Kochia scoparia); [21]
  Plant response rating, Kochia: 100
Kochia (Kochia scoparia)
  Kochia plant response rating: 100
[6]; [13]
  Plant response rating, Lambsquarters: 100
[6]; [15]
  Plant response rating, Lambsquarters: 95
[6]; [16]
  Plant response rating, Lambsquarters: 100
[6]; [17]
  Lambsquarters plant response rating: 100
[6]; [18]
  Plant response rating, Lambsquarters: 100
[6]; [19]
  Plant response rating, Lambsquarters: 100
[6]; [20]
  Lambsquarters plant response rating: 100
[7]; [13]
  Plant response rating, Crabgrass, Large: 100
[7]; [14]
  Plant response rating, Crabgrass, Large: 70
[7]; [15]
  Plant response rating, Crabgrass, Large: 75
[7]; [16]
  Plant response rating, Crabgrass, Large: 85
[7]; [17]
  Crabgrass, Large plant response rating: 90
[7]; [18]
  Plant response rating, Crabgrass, Large: 45
[7]; [19]
  Plant response rating, Crabgrass, Large: 85
[7]; [20]
  Crabgrass, Large plant response rating: 95
[8]; [13]
  Plant response rating, Pigweed: 100
[8]; [15]
  Plant response rating, Pigweed: 95
[8]; [16]
  Plant response rating, Pigweed: 100
[8]; [18]
  Plant response rating, Pigweed: 100
[8]; [20]
  Pigweed plant response rating: 100
[9]; [13]
  Plant response rating, Velvetleaf: 90
[9]; [15]
  Plant response rating, Velvetleaf: 80
[9]; [16]
  Plant response rating, Velvetleaf: 95
[9]; [18]
  Plant response rating, Velvetleaf: 75
[9]; [20]
  Velvetleaf plant response rating: 85
[10]; [13]
  Plant response rating, Wheat: 0
[10]; [15]
  Plant response rating, Wheat: 0
[10]; [16]
  Plant response rating, Wheat: 5
[10]; [18]
  Plant response rating, Wheat: 0
[10]; [20]
  Wheat plant response rating: 0
[11]; [13]
  Plant response rating, Cupgrass, Woolly: 5
[11]; [14]
  Plant response rating, Cupgrass, Woolly: 15
[11]; [15]
  Plant response rating, Cupgrass, Woolly: 20
[11]; [16]
  Plant response rating, Cupgrass, Woolly: 25
[11]; [17]
  Cupgrass, Woolly plant response rating: 55
[11]; [18]
  Plant response rating, Cupgrass, Woolly: 0
[11]; [19]
  Plant response rating, Cupgrass, Woolly: 0
[11]; [20]
  Cupgrass, Woolly plant response rating: 0
[12]; [13]
  Plant response rating, Nutsedge, Yellow: 85
[12]; [15]
  Plant response rating, Nutsedge, Yellow: 60
[12]; [16]
  Plant response rating, Nutsedge, Yellow: 70
[12]; [18]
  Plant response rating, Nutsedge, Yellow: 10
[12]; [20]
  Nutsedge, Yellow plant response rating: 75

## Cc1ccc(F)cc1-n1c(-c2ccccc2)ncc(C(=O)C2=C(O)CCCC2=O)c1=O [Compound 44]
[1]; [13]
  Plant response rating, Bromegrass, Downy: 5
[1]; [14]
  Plant response rating, Bromegrass, Downy: 40
[1]; [15]
  Plant response rating, Bromegrass, Downy: 70
[1]; [16]
  Plant response rating, Bromegrass, Downy: 80
[1]; [17]
  Bromegrass, Downy plant response rating: 85
[1]; [18]
  Plant response rating, Bromegrass, Downy: 0
[1]; [19]
  Plant response rating, Bromegrass, Downy: 0
[1]; [20]
  Bromegrass, Downy plant response rating: 0
[2]; [13]
  Plant response rating, Foxtail, Giant: 98
[2]; [14]
  Plant response rating, Foxtail, Giant: 95
[2]; [15]
  Plant response rating, Foxtail, Giant: 95
[2]; [16]
  Plant response rating, Foxtail, Giant: 95
[2]; [17]
  Foxtail, Giant plant response rating: 98
[2]; [18]
  Plant response rating, Foxtail, Giant: 20
[2]; [19]
  Plant response rating, Foxtail, Giant: 45
[2]; [20]
  Foxtail, Giant plant response rating: 75
[3]; [13]
  Plant response rating, Goosegrass: 100
[3]; [15]
  Plant response rating, Goosegrass: 90
[3]; [16]
  Plant response rating, Goosegrass: 90
[3]; [17]
  Goosegrass plant response rating: 95
[3]; [18]
  Plant response rating, Goosegrass: 90
[3]; [20]
  Goosegrass plant response rating: 100
[4]; [13]
  Plant response rating, Foxtail, Green: 100
[4]; [14]
  Plant response rating, Foxtail, Green: 90
[4]; [15]
  Plant response rating, Foxtail, Green: 90
[4]; [16]
  Plant response rating, Foxtail, Green: 90
[4]; [17]
  Foxtail, Green plant response rating: 90
[4]; [18]
  Plant response rating, Foxtail, Green: 0
[4]; [19]
  Plant response rating, Foxtail, Green: 98
[4]; [20]
  Foxtail, Green plant response rating: 98
[5]; [13]
  Plant response rating, Johnsongrass: 95
[5]; [15]
  Plant response rating, Johnsongrass: 70
[5]; [16]
  Plant response rating, Johnsongrass: 90
[5]; [17]
  Johnsongrass plant response rating: 95
[5]; [18]
  Plant response rating, Johnsongrass: 10
[5]; [19]
  Plant response rating, Johnsongrass: 75
[5]; [20]
  Johnsongrass plant response rating: 90
Kochia (Kochia scoparia); 62 g ai/ha, 13 to 15 days
  Plant response rating, Kochia: 75
Kochia (Kochia scoparia); [21]
  Plant response rating, Kochia: 75
Kochia (Kochia scoparia)
  Kochia plant response rating: 95
[6]; [13]
  Plant response rating, Lambsquarters: 100
[6]; [15]
  Plant response rating, Lambsquarters: 95
[6]; [16]
  Plant response rating, Lambsquarters: 95
[6]; [17]
  Lambsquarters plant response rating: 98
[6]; [18]
  Plant response rating, Lambsquarters: 100
[6]; [19]
  Plant response rating, Lambsquarters: 100
[6]; [20]
  Lambsquarters plant response rating: 100
[7]; [13]
  Plant response rating, Crabgrass, Large: 100
[7]; [14]
  Plant response rating, Crabgrass, Large: 85
[7]; [15]
  Plant response rating, Crabgrass, Large: 90
[7]; [16]
  Plant response rating, Crabgrass, Large: 95
[7]; [17]
  Crabgrass, Large plant response rating: 98
[7]; [18]
  Plant response rating, Crabgrass, Large: 65
[7]; [19]
  Plant response rating, Crabgrass, Large: 75
[7]; [20]
  Crabgrass, Large plant response rating: 100
[8]; [13]
  Plant response rating, Pigweed: 100
[8]; [15]
  Plant response rating, Pigweed: 95
[8]; [16]
  Plant response rating, Pigweed: 98
[8]; [18]
  Plant response rating, Pigweed: 98
[8]; [20]
  Pigweed plant response rating: 100
[9]; [13]
  Plant response rating, Velvetleaf: 100
[9]; [15]
  Plant response rating, Velvetleaf: 98
[9]; [16]
  Plant response rating, Velvetleaf: 100
[9]; [18]
  Plant response rating, Velvetleaf: 75
[9]; [20]
  Velvetleaf plant response rating: 100
[10]; [13]
  Plant response rating, Wheat: 0
[10]; [15]
  Plant response rating, Wheat: 10
[10]; [16]
  Plant response rating, Wheat: 30
[10]; [18]
  Plant response rating, Wheat: 0
[10]; [20]
  Wheat plant response rating: 0
[11]; [13]
  Plant response rating, Cupgrass, Woolly: 85
[11]; [14]
  Plant response rating, Cupgrass, Woolly: 80
[11]; [15]
  Plant response rating, Cupgrass, Woolly: 80
[11]; [16]
  Plant response rating, Cupgrass, Woolly: 85
[11]; [17]
  Cupgrass, Woolly plant response rating: 95
[11]; [18]
  Plant response rating, Cupgrass, Woolly: 0
[11]; [19]
  Plant response rating, Cupgrass, Woolly: 45
[11]; [20]
  Cupgrass, Woolly plant response rating: 80
[12]; [13]
  Plant response rating, Nutsedge, Yellow: 90
[12]; [15]
  Plant response rating, Nutsedge, Yellow: 50
[12]; [16]
  Plant response rating, Nutsedge, Yellow: 50
[12]; [18]
  Plant response rating, Nutsedge, Yellow: 45
[12]; [20]
  Nutsedge, Yellow plant response rating: 75
